In one data set the test system is C. difficile ATCC43596. Nature of the data set: Minimum inhibitory concentration assay. The note with it: for C. difficile ATCC43596 MIC: 48 h, 37° C., anaerobic.
For a further data set, the system named is C. difficile spores. In words: Spore viability testing. It counts as cell-based. The note with it: for Viability of C. difficile spores: x2 MIC, 24 hours, CFU on taurocholate agar; for Inhibition of C. difficile spore germination: x5 MIC.
Another data set deals with sheep blood. Nature of the data set: Hemolysis of sheep blood. Format: cell-based. The note with it: Ovis aries.
Data set [1] relates to AsPc-1 (pancreatic cancer) cells. Nature of the data set: Synergistic assay (checkerboard) on AsPc-1 cells. Format: cell-based. The method, then: Synergistic Assay. The synergistic or antagonistic activities of 11 with other cancer drugs on AsPc-1 (pancreatic cancer) cells were assessed in vitro via micro dilution broth checkerboard technique previously reported. The FIC index was calculated according to the following equation. ΣFIC=FICA+FICB=CA/MICA+CB/MICB where MICA and MICB are MIC of drugs A and B, CA and CB are the concentrations of drugs A and B used in combination. In these interaction studies, ΣFIC of less than 0.5 represents synergistic activity.
These experiments were performed in the same manner as those of Example 8.

Data set [2] in a line: Cytotoxicity MTT assay, L12210. The note with it: mouse, L12210 cells. It counts as cell-based. On the procedure:
(§1) Selected molecules were tested for cytotoxicity (IC50) in cancer and healthy cells via a MTT colorimetric assay.
(§2) Each cell was cultured in recommended medium by ATCC, and the IC50 data were obtained with each cell line.
(Tetrazolium dyes change colour on reduction, which living cells bring about.)

The nature of data set [3]: Cytotoxicity MTT assay, HPAF-II. Format: cell-based. The note with it: human, HPAF-II cells. The method, then:
as §1, §2

A short description of data set [4]: Cytotoxicity MTT assay, Panc-1. It counts as cell-based. The note with it: human, Panc-1 cells. On the procedure: as §1, §2
Data set [5] can be described thus: Cytotoxicity MTT assay, AsPc-1. Format: cell-based. The note with it: human, AsPc-1 cells. The method, then: as §1, §2
Data set [6] in a line: Cytotoxicity MTT assay, SK-OV-3. It counts as cell-based. The note with it: human, SK-OV-3 cells. The method, then: as §1, §2
Data set [7] is described as follows: Cytotoxicity MTT assay, LoVo. It counts as cell-based. The note with it: human, LoVo cells. On the procedure: as §1, §2
Data set [8] can be described thus: Cytotoxicity MTT assay, KB. Format: cell-based. The note with it: human, KB cells. The method, then:
as §1, §2

A short description of data set [9]: Cytotoxicity MTT assay, MDA-MB-435S. Format: cell-based. The note with it: human, MDA-MB-435S cells. The method, then: as §1, §2

Experimental findings from US20250092081A1, “USE OF GLYCOSYLTRASNFERASE INHIBITORS FOR TREATING CANCER” (CALIFORNIA INSTITUTE OF TECHNOLOGY, priority 2020, published 2025) are described below.

Values after ≈ are worked out from the molar mass of the structure shown. Where only a bound is given, the exact number is not on record here.

In the case of `CCCCCCCc1ccc(NC(=O)CCCN(C)[C@H](C(N)=O)[C@H](OC2O[C@H](CN)[C@@H](O)[C@H]2O)[C@H]2O[C@@H](n3ccc(=O)[nH]c3=O)C(O)[C@H]2O)cc1` (some centres unmarked) [Compound 9], the “anti-C. difficile growth inhibitory activity (in words)” value in the data set with C. difficile ATCC43596 was “weak”. Also, the “Viability of C. difficile spores” value with C. difficile spores is recorded as “caused loss of viability”.

Take `CCCCCCCc1ccc(NC(=O)CCCN[C@H](C(N)=O)[C@H](OC2O[C@H](CN)[C@@H](O)[C@H]2O)[C@H]2O[C@@H](n3ccc(=O)[nH]c3=O)C(O)[C@H]2O)cc1` (some centres unmarked) [Compound 10]: the “Viability of C. difficile spores” value in the data set with C. difficile spores was “caused loss of viability”. Further, in the data set on sheep blood, it took 70000 nM to reach half-maximal inhibition (IC50).

As to `CN(CCCC(=O)NCc1ccc(N2CCC(Oc3ccc(C(F)(F)F)cc3)CC2)cc1)[C@H](C(N)=O)[C@H](O[C@@H]1O[C@H](CN)[C@@H](O)[C@H]1O)[C@H]1O[C@@H](n2ccc(=O)[nH]c2=O)[C@H](O)C1O` (some centres unmarked) [Compound 12], in the data set with C. difficile ATCC43596, the “anti-C. difficile growth inhibitory activity (in words)” value was “weak”.

Take `CN(CCCN)[C@H](C(=O)O)[C@H](O[C@@H]1O[C@H](CN)[C@@H](O)[C@H]1O)[C@H]1O[C@@H](n2ccc(=O)[nH]c2=O)[C@H](O)[C@@H]1O` [FR-900493 (1), FR-900493]: in the data set with C. difficile ATCC43596, the “C. difficile ATCC43596 MIC” value is greater than 50 µg/mL.

In the case of `Nc1ccn([C@@H]2O[C@H](CO)[C@@H](O)C2(F)F)c(=O)n1` [Gemcitabine, reference compound], in data set [1] (AsPc-1 cells, Table 6), the “IC50 A / IC50 B (drug alone)” value was 390 nM. For the same compound, the “CA and CB (concentrations of drugs A and B used in combination)” value in data set [1] (AsPc-1 cells, combination of 11 (A) and Gemcitabine (B), per entry) came out at 0.37 µM.

For the compound `CC(=O)O[C@H]1C(=O)[C@@]2(C)[C@H]([C@H](OC(=O)c3ccccc3)[C@]3(O)C[C@H](OC(=O)[C@H](O)[C@@H](NC(=O)c4ccccc4)c4ccccc4)C(C)=C1C3(C)C)[C@]1(OC(C)=O)CO[C@@H]1C[C@@H]2O` [Taxol, Paclitaxel, reference compound], the IC50 in data set [2] stood at 550 nM; in data set [3], 20 nM; in data set [4], 20 nM; in data set [5], 190 nM; in data set [6], 1080 nM; in data set [7], 57 nM. Further, the IC50 was determined as 790 nM in data set [8] and 110 nM in data set [9]. The “IC50 A / IC50 B (drug alone)” value in data set [1] (AsPc-1 cells, Table 5) turned out to be 550 nM. For the same compound, the “lowest Taxol concentration to kill AsPc-1 cells when combined with 11” value in [1] (combined with 11) was 7 nM.

For `CC(=O)NC[C@H]1CN(c2ccc(N3CCOCC3)c(F)c2)C(=O)O1` [linezolid, reference compound], the “Inhibition of C. difficile spore germination” value (“Inhibition” below) with C. difficile spores is reported as “did not inhibit the spore germination”.

In the case of `Cc1ncc([N+](=O)[O-])n1CCO` [metronidazole, reference compound], the “Inhibition” value in the data set on C. difficile spores is listed as “did not inhibit the spore germination”.

On to `CN[C@H](CC(C)C)C(=O)N[C@H]1C(=O)N[C@@H](CC(N)=O)C(=O)N[C@H]2C(=O)N[C@H]3C(=O)N[C@H](C(=O)N[C@H](C(=O)O)c4cc(O)cc(O)c4-c4cc3ccc4O)[C@H](O)c3ccc(c(Cl)c3)Oc3cc2cc(c3O[C@@H]2O[C@H](CO)[C@@H](O)[C@H](O)[C@H]2O[C@H]2C[C@](C)(N)[C@H](O)[C@H](C)O2)Oc2ccc(cc2Cl)[C@H]1O` [vancomycin, reference compound], for which, in the data set with C. difficile ATCC43596, the “MIC against C. difficile (reference antibiotic)” value was found to be 2.5 µg/mL (≈ 1.73 µM). Also, in the data set on C. difficile spores, the “Inhibition” value is recorded as “did not inhibit the spore germination”.

Consider Tunicamycin, for which, in the data set on C. difficile ATCC43596, the “C. difficile ATCC43596 MIC” value was greater than 50 µg/mL.

For orientation: IC50 means the point on the concentration scale where inhibition reaches its midpoint. Read a low IC50 as higher potency.
